# Data as given in patent US10239878B2, “Macrocyclic ligands with pendant chelating moieties and complexes thereof” (LUMIPHORE, INC., priority 2016, dated 2019).
# Experiment: Stability of 43⋅Eu luminescence in the presence of ca. 25 mM competitors
# Assay type: physicochemical
# Experimental: In order for a luminescent metal complex to be useful in a practical sense, it must be stable in the presence of common competitive metal cations and chelating ligands. We measured the stability of 43 ⋅Eu (ca. 7 μM) dissolved in TBS buffer, with various competitors present at ca. 25 mM concentration. Specifically, manganese dichloride tetrahydrate (14.8 mg, 74.8 μmol) was dissolved into TBS buffer (100 μL), and added to an aliquot of 43⋅Eu (3 mL), making the final concentration of Mn(II) 24.1 mM. Magnesium chloride hexahydrate (33.6 mg, 165 μmol) was dissolved into TBS buffer (200 μL), and 100 μL was added to an aliquot of 43⋅Eu (3 mL), making the final concentration of Mg(II) 26.7 mM. Calcium chloride hexahydrate (55.8 mg, 255 μmol) was dissolved into TBS buffer (300 μL), and 100 μL was added to an aliquot of 43 ⋅Eu (3 mL), making the final concentration of Ca(II) 27.4 mM. For DTPA, first KOH (95.9 mg, 1.71 mmol) was dissolved into 1 mL of water, and 389 μL of this basic solution (5 equivalents) was used to dissolve DTPA (52.3 mg, 133 μmol). Then, 219 μL of this DTPA solution was added to an aliquot of 43⋅Eu (3 mL), making the final concentration of DTPA 23.4 mM. EDTA (0.5 M, pH=8, 150 μL) was added to an aliquot of 43 ⋅Eu (3 mL), making the final concentration of EDTA 23.8 mM. For phosphate competition, the methanolic stock of 43⋅Eu was diluted to ca. 7 μM in 25 mM phosphate buffer (pH=8).
smiles,measurement,setting,value
NCCOCCNC(=O)C1CCCN(C(=O)c2cccc(=O)n2[O-])CCCNC(=O)c2ccc(n([O-])c2=O)C(=O)NC2COCC2NC(=O)c2ccc(c(=O)n2[O-])C(=O)NCCCN1C(=O)c1cccc(=O)n1[O-].[Eu+3] (mixture of isomers) [43⋅Eu],change in sample brightness,"25 mM phosphate buffer pH=8, 24 hours",no detectable change
same,change in sample brightness,"Ca(II) 27.4 mM, TBS buffer, 24 hours",no detectable change
same,brightness remaining (of the original brightness),"DTPA 23.4 mM, TBS buffer, after 24 hours",83%
same,brightness remaining,"EDTA 23.8 mM, TBS buffer, 24 hours",96%
same,change in sample brightness,"Mg(II) 26.7 mM, TBS buffer, 24 hours",no detectable change
same,brightness remaining,"Mn(II) 24.1 mM, TBS buffer, 24 hours",89%
